According to patent publication US9783545B2, “Pyrazolopyridazines and methods for treating retinal-degenerative diseases and hearing loss associated with usher syndrome” (Usher III Initiative, Inc., priority 2012, dated 2017):

Tests used:
N48K Clarin-1 [1] = molecular target: T1, N48K Clarin-1 (Homo sapiens, UniProt P58418, N48K); test: Restoration of expression of N48K Clarin-1, 2 hour incubation then 22 hr fresh medium (high content imaging of HA-tagged N48K Clarin-1); format: cell-based; details: HEK293-Clarin-1 N48K-HA D9 cell line, 2 hr incubation with compound, then 22 hr in fresh medium
T1 construct: expressed in transfected cells
T1 sequence (P58418 1-232 N48K): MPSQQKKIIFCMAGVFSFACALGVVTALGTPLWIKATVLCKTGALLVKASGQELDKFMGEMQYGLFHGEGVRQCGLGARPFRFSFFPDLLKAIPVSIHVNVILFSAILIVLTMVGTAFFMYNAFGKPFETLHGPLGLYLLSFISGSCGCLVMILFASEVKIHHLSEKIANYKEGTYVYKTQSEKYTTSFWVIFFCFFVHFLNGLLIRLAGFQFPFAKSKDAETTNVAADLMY
Method: An Assay Method Showing Activity of Compounds of the Invention that Restore Expression of N48K Clarin-1(2 hour incubation)
(§1) Clarin-1 is the protein encoded by the gene mutated in Usher III Syndrome (Adato et al., 2002). The most prevalent mutation in Clarin-1 in North America is N48K, which is reported to cause loss of glycosylation and a trafficking defect (Tian et al., 2009). […] Thus it is believed that restoring the trafficking of N48K Clarin-1 to the cell surface provides an avenue of intervention for Usher III Sydrome.
(§2) In a typical experiment, these cells were seeded on collagen-coated 96-well plates at a cell density of 20,000 cells per well in Dulbecco's Modified Eagle Medium (DMEM) contain 10% fetal bovine serum in a humidified incubator at 37° C., 5% CO2. After an overnight incubation, compounds were added for a 2 hr incubation in DMEM medium contain 10% fetal bovine serum in a humidified incubator at 37° C., 5% CO2. As a negative control, DMSO was used at 0.25% final concentrations. Compounds were typically tested in triplicate fashion. After the 2 hr incubation with compounds, the cells were incubated in fresh medium for 22 hr. The cells were then fixed by the addition of 10% buffered formalin to the wells to achieve a final concentration of 4% formalin. After a 20 min fixation at room temperature, wells were washed three times with phosphate-buffered saline (PBS) containing Triton X-100 (0.02 phosphate, 150 mM NaCl, 0.1% Triton X-100).
(§3) The HA-tagged N48K Clarin-1 was detected with an antibody against the HA tag (HA.11 Clone 16B12 Monoclonal antibody, Covance #MMS-101P) at a dilution of 1:1000 in PBS containing Triton X-100. After a 90 min incubation, wells were washed three times with PBS containing Triton X-100, and a secondary antibody (Goat anti-mouse IgG-Cy3 (1.5 mg/ml), Jackson IR Europe #115165003) was added to the wells at a dilution of 1:250 in PBS containing Triton X-100 for 45 min. Wells were subsequently washed three times with PBS containing Triton X-100, and a final staining for nuclei was performed by the addition of DAPI (4′,6-diamidino-2-phenylindole) at a dilution of 1:10,000. The imaging of the stained cells was performed on an InCell 1000 High Content Imager (GE Healthcare), reading out the Cy3 channel for N48K Clarin-1 and the DAPI channel for nuclei. The images are analyzed and quantitated using a specific algorithm. This algorithm measured the HA-Clarin-1 staining for each cell based on the additional nuclear segmentation of the DAPI signal (FIG. 1). This algorithm measured the intensity per cell, and thus it is less sensitive for variation in cell number. Per well, approximately 2,000 cells were measured to achieve an average density per cell measurement.

N48K Clarin-1 [2] = molecular target: T1, N48K Clarin-1; test: Restoration of expression of N48K Clarin-1, 24 hour incubation (high content imaging of HA-tagged N48K Clarin-1); format: cell-based; details: HEK293-Clarin-1 N48K-HA D9 cell line, 24 hr incubation with compound; read-out: IC50 (the source's name)
Method: Assay Method Showing Activity of Compounds of the Invention that Restore Expression of N48K Clarin-1 (24 hour incubation)
as §1
as §2, with “for a 24 hr incubation” for “for a 2 hr incubation”, “After the 24 hr incubation” for “After the 2 hr incubation”, “cells were fixed by” for “cells were incubated in fresh medium for 22 hr. The cells were then fixed by”
as §3, with “images were” for “images are”, “measurement. FIG. 1 illustrates high content analysis. DAPI-stained nuclei are used to perform segmentation of the image into individual cells. The density observed in the N48K Clarin-1 channel (Cy3) is then calculated per cell averaged over a field.” for “measurement.”

| SMILES | IC50 (N48K Clarin-1 [1]) | EC50 (N48K Clarin-1 [2]) |
| --- | --- | --- |
| Clc1c(-c2ccccc2)nnc2c1c(-c1ccccc1)nn2Cc1cccnc1 [IIn, 4-chloro-3,5-diphenyl-1-(3-pyridylmethyl)pyrazolo[3,4-c]pyridazine] | ≤ 4 µM | ≤ 2 µM |
| Clc1c(-c2ccccc2)nnc2c1c(-c1ccccc1)nn2Cc1cocn1 [IIh, 4-[(4-chloro-3,5-diphenyl-pyrazolo[3,4-c]pyridazin-1-yl)methyl]oxazole] | ≤ 4 µM | ≤ 2 µM |
| Clc1c(-c2ccccc2)nnc2c1c(-c1ccccc1)nn2C[C@H]1CCCO1 [IIj, 4-chloro-3,5-diphenyl-1-[[(2R)-tetrahydrofuran-2-yl]methyl]pyrazolo[3,4-c]pyridazine] | ≤ 4 µM | ≤ 2 µM |
| O=C1CCCN1CCn1nc(-c2ccccc2)c2c(Cl)c(-c3ccccc3)nnc21 [IIb, 1-[2-(4-chloro-3,5-diphenyl-pyrazolo[3,4-c]pyridazin-1-yl)ethyl]pyrrolidin-2-one] | ≤ 4 µM | ≤ 2 µM |
| CS(=O)(=O)CCn1nc(-c2ccccc2)c2c(Cl)c(-c3ccccc3)nnc21 [IIq, 4-chloro-1-(2-methylsulfonylethyl)-3,5-diphenyl-pyrazolo[3,4-c]pyridazine] | ≤ 4 µM | ≤ 2 µM |
| CN1CCN(CCn2nc(-c3cnn(C)c3)c3c(Cl)c(-c4ccccc4)nnc32)CC1 [Ic, 4-chloro-3-(1-methyl-1H-pyrazol-4-yl)-1-(2-(4-methylpiperazin-1-yl)ethyl)-5-phenyl-1H-pyrazolo[3,4-c]pyridazine] | 4 to 8 µM | ≤ 2 µM |
| COC/C=C/c1nn(CCN2CCN(C)CC2)c2nnc(-c3ccccc3)c(Cl)c12 [Ii, (E)-4-chloro-3-(3-methoxyprop-1-en-1-yl)-1-(2-(4-methylpiperazin-1-yl)ethyl)-5-phenyl-1H-pyrazolo[3,4-c]pyridazine] | ≤ 4 µM | ≤ 2 µM |
| CC1(Cn2nc(-c3ccccc3)c3c(Cl)c(-c4ccccc4)nnc32)COC1 [IIf, 4-chloro-1-[(3-methyloxetan-3-yl)methyl]-3,5-diphenyl-pyrazolo[3,4-c]pyridazine] | ≤ 4 µM | ≤ 2 µM |
| Clc1c(-c2ccccc2)nnc2c1c(-c1ccccc1)nn2CCn1ccnc1 [IIc, 4-chloro-1-(2-imidazol-1-ylethyl)-3,5-diphenyl-pyrazolo[3,4-c]pyridazine] | ≤ 4 µM | ≤ 2 µM |
| CN1CCN(CCn2nc(-c3ccc4c(c3)CCO4)c3c(Cl)c(-c4ccccc4)nnc32)CC1 [Il, 4-chloro-3-(2,3-dihydrobenzofuran-5-yl)-1-(2-(4-methylpiperazin-1-yl)ethyl)-5-phenyl-1H-pyrazolo[3,4-c]pyridazine] | ≤ 4 µM | ≤ 2 µM |
| Fc1cccc(-c2nn(CCn3ccnc3)c3nnc(-c4ccccc4)c(Cl)c23)c1 [IIs, 4-chloro-3-(3-fluorophenyl)-1-(2-imidazol-1-ylethyl)-5-phenyl-pyrazolo[3,4-c]pyridazine] | ≤ 4 µM | ≤ 2 µM |
| CN1CCN(CCn2nc(-c3cccn3C)c3c(Cl)c(-c4ccccc4)nnc32)CC1 [Ik, 4-chloro-3-(1-methyl-1H-pyrrol-2-yl)-1-(2-(4-methylpiperazin-1-yl)ethyl)-5-phenyl-1H-pyrazolo[3,4-c]pyridazine] | ≤ 4 µM | ≤ 2 µM |
| Cn1cc(Cn2nc(-c3ccccc3)c3c(Cl)c(-c4ccccc4)nnc32)cn1 [IIg, 4-chloro-1-[(1-methylpyrazol-4-yl)methyl]-3,5-diphenyl-pyrazolo[3,4-c]pyridazine] | ≤ 4 µM | ≤ 2 µM |
| FCCn1nc(-c2ccccc2)c2c(Cl)c(-c3ccccc3)nnc21 [IIl, 4-chloro-1-(2-fluoroethyl)-3,5-diphenyl-pyrazolo[3,4-c]pyridazine] | ≤ 4 µM | ≤ 2 µM |
| Cn1cncc1Cn1nc(-c2ccccc2)c2c(Cl)c(-c3ccccc3)nnc21 [IIa, 4-chloro-1-[(3-methylimidazol-4-yl)methyl]-3,5-diphenyl-pyrazolo[3,4-c]pyridazine] | 4 to 8 µM | ≤ 2 µM |
| Clc1c(-c2ccccc2)nnc2c1c(I)nn2CCN1CCCC1 [Ir, 4-chloro-3-iodo-5-phenyl-1-(2-pyrrolidin-1-ylethyl)pyrazolo[3,4-c]pyridazine] | ≤ 4 µM |  |
